From patent US9696323B2, “Biomarkers for chagas disease related cardiomyopathy” (THE BOARD OF REGENTS OF THE UNIVERSITY OF TEXAS SYSTEM, priority 2013, dated 2017)

Test system: T. cruzi
Assay: 2D-GE plasma proteome profile (differential protein expression) of T. cruzi-infected rats treated with PBN and/or BZ
Assay type: in vivo, rat
Details: for expression of inflammation-associated plasma proteins: APOH
Description: Certain embodiments include biomarkers identified in a previous study. Parasite persistence and oxidative damage in the heart are known to be of pathological significance during Chagas disease (Zacks et al., (2005) An Acad Bras Cienc, 77, 695-715; Gupta et al., (2009) Interdiscip Perspect Infect Dis, 2009, 190354). […] In the previous study the inventors identified 92 proteins that were differentially expressed or oxidized in chagasic plasma. Functional analysis allocated a majority of these proteins to inflammation/immunity and lipid metabolism categories, and to molecular pathways associated with cardiovascular dysfunction, e.g., myocardial infarction, hypertrophy, and fibrosis, and pulmonary embolism and hypertension. Some proteins in chagasic rats treated with PBN and/or BZ were allocated to curative pathways (immune regulation and cardiac remodeling). The 2D-GE results were validated by Western blotting. […] Increased plasma levels of GSN, MYL2, and VIM were directly correlated with the severity of cardiac disease in human chagasic patients. […] These findings have utility in diagnosing disease severity and designing suitable therapy for management of human chagasic patients.
Ingenuity Pathway Analysis (IPA) is a highly curated and comprehensive software used for the integration of proteins into networks and pathways with biological meaning (Thomas and Bonchev, (2010). Hum Genomics, 4, 353-360). Network analysis of the plasma proteome profile of chagasic rats identified four major sub-networks linked to host response to T. cruzi infection and disease development (Table V). The maximal numbers of the differentially expressed plasma proteins (19 proteins) in chagasic rats were associated with antigen presentation and inflammatory response category (Table V) and indicators of persistent inflammation, known to be of pathological significance in Chagas disease (Dhiman et al., (2009) Clinical and Vaccine Immunology, 16, 660-666; Tanowitz et al., (2009) Prog Cardiovasc Dis, 51, 524-539; Junqueira et al., (2010) Expert Rev Mol Med, 12, e29). Following functional analysis of the inflammation-associated proteins, 12 proteins (APOA1, APOE, C3, CFB, CFH, FGB, GSN, KRT10, PLG, SCG2, SERPINA1, and SERPINC1) were identified as being involved in immune cell trafficking and cell movement of leukocytes, granulocytes, phagocytes, neutrophils, and dendritic and antigen presenting cells. Some of the differentially expressed proteins in inflammation category were associated with activation (APOE, C3, CFH, GC and PLG), chemotaxis (C3, SCG2, SERPINA1, SERPINC1), and infiltration of leukocytes (APOA1, APOE, C3, PLG, KRT10) and neutrophils (C3, CFB, CFH, PLG). Up regulation of APOE, APOA1, APOH, GC and PLG in chagasic plasma was indicative of activation, binding and accumulation of macrophages in the disease state. Of the 19 differentially expressed inflammation-associated proteins, 11 proteins (APOE, C3, CFB, CFH, GSN, KRT10, SCG2, SERPINA1, SERPINC1, GC, and PLG) were carbonylated in chagasic plasma. […] Other proteins (APOE, C3, KRT3, and SCG2) were exposed to oxidation due to T. cruzi-induced, acute oxidative stress, but were normalized in expression and oxidation during the chronic phase.
Seventeen of the differentially expressed proteins in chagasic plasma, i.e., AFM, C4BPA, CACNA1D, DLGAP2, GC, KNG1, MUG1, MYLPF, MY05A, MY05B, PRPH, PZP, RAI14, and SCG2, were allotted to the lipid metabolism/molecular transport/small molecule biochemistry category (Table V) and functionally linked by IPA network analysis to lipid, fatty acid, and carbohydrate metabolism. A majority of the proteins in this category, i.e., ALB, APOA1, APOA4, APOE, APOH, C3, GC, GNAQ, MY05A, PLG, SCD2, SERPINA1, SERPINC1 and VIM, were linked to the synthesis, metabolism, transport, and modification of lipids and fatty acids, and to uptake and release or efflux of lipids, eicosanoids, and cholesterol. […]

[1] = plasma, RAP group (acute infection)

SMILES: CC(C)(C)/[N+]([O-])=C/c1ccccc1 [PBN]
- expression of inflammation-associated plasma proteins (acutely infected rats, APOE, CFH, PLG and SCG2): normalized or regulated the expression
- expression of inflammation-associated plasma proteins (chronically infected rats, GC, GSN and PLG): normalized or regulated the expression
- expression level of CFB, GSN, C3, and SERPINC1 (infected rats): partly regulated
- Spot# 12, 180 Average Normalized Density × 100,000 [1]: 21.47
- Spot# 34 Average Normalized Density × 100,000 [1]: 0.37
- Spot# 37, 593 Average Normalized Density × 100,000 [1]: 14.38
- Spot# 49, 673 Average Normalized Density × 100,000 [1]: 19.12
- Spot# 52, 54, 302 Average Normalized Density × 100,000 [1]: 9.80
- Spot# 53, 225 Average Normalized Density × 100,000 [1]: 8.76
- Spot# 72 Average Normalized Density × 100,000 [1]: 18.10
- Spot# 73, 705, 787 Average Normalized Density × 100,000 [1]: 46.94
- Spot# 77 Average Normalized Density × 100,000 [1]: 16.3
- Spot# 88 Average Normalized Density × 100,000 [1]: 74.61
- Spot# 94 Average Normalized Density × 100,000 [1]: 1.84
- Spot# 115, 123 Average Normalized Density × 100,000 [1]: 22.27
- Spot# 149 Average Normalized Density × 100,000 [1]: 0.78
- Spot# 153 Average Normalized Density × 100,000 [1]: 27.07
- Spot# 177 Average Normalized Density × 100,000 [1]: 3.71
- Spot# 181 Average Normalized Density × 100,000 [1]: 3.99
- Spot# 184, 257, 328 Average Normalized Density × 100,000 [1]: 4.54
- Spot# 207, 555 Average Normalized Density × 100,000 [1]: 13.23
- Spot# 215 Average Normalized Density × 100,000 [1]: 1.73
- Spot# 266 Average Normalized Density × 100,000 [1]: 0.75
- Spot# 299 Average Normalized Density × 100,000 [1]: 1.92
- Spot# 315 Average Normalized Density × 100,000 [1]: 6.24
- Spot# 334 Average Normalized Density × 100,000 [1]: 0.61
- Spot# 341 Average Normalized Density × 100,000 [1]: 0.59
- Spot# 355, 359 Average Normalized Density × 100,000 [1]: 2.99
- Spot# 382, 385, 378, 572, 578, 595 Average Normalized Density × 100,000 [1]: 33.76
- Spot# 389 Average Normalized Density × 100,000 [1]: 37.55
- Spot# 430 Average Normalized Density × 100,000 [1]: 22.40
- Spot# 434, 678 Average Normalized Density × 100,000 [1]: 55.14
- Spot# 439 Average Normalized Density × 100,000 [1]: 4.04
- Spot# 452 Average Normalized Density × 100,000 [1]: 18.92
- Spot# 464 Average Normalized Density × 100,000 [1]: 3.89
- Spot# 479 Average Normalized Density × 100,000 [1]: 23.96
- Spot# 493 Average Normalized Density × 100,000 [1]: 9.82
- Spot# 515 Average Normalized Density × 100,000 [1]: 6.87
- Spot# 524 Average Normalized Density × 100,000 [1]: 53.74
- Spot# 551, 587, 908 Average Normalized Density × 100,000 [1]: 88.04
- Spot# 559 Average Normalized Density × 100,000 [1]: 24.39
- Spot# 571 Average Normalized Density × 100,000 [1]: 7.84
- Spot# 576, 620 Average Normalized Density × 100,000 [1]: 18.08
- Spot# 586, 614 Average Normalized Density × 100,000 [1]: 50.44
- Spot# 592 Average Normalized Density × 100,000 [1]: 15.61
- Spot# 604 Average Normalized Density × 100,000 [1]: 22.81
- Spot# 606 Average Normalized Density × 100,000 [1]: 9.60
- Spot# 627 Average Normalized Density × 100,000 [1]: 30.23
- Spot# 638 Average Normalized Density × 100,000 [1]: 4.42
- Spot# 649 Average Normalized Density × 100,000 [1]: 40.69
- Spot# 651 Average Normalized Density × 100,000 [1]: 94.03
- Spot# 655 Average Normalized Density × 100,000 [1]: 240.6
- Spot# 672 Average Normalized Density × 100,000 [1]: 7.34
- Spot# 676 Average Normalized Density × 100,000 [1]: 14.69
- Spot# 691 Average Normalized Density × 100,000 [1]: 49.99
- Spot# 715 Average Normalized Density × 100,000 [1]: 10.83
- Spot# 724 Average Normalized Density × 100,000 [1]: 1.72
- Spot# 728 Average Normalized Density × 100,000 [1]: 0.76
- Spot# 733 Average Normalized Density × 100,000 [1]: 2.24
- Spot# 740 Average Normalized Density × 100,000 [1]: 7.81
- Spot# 745 Average Normalized Density × 100,000 [1]: 4.51
- Spot# 749 Average Normalized Density × 100,000 [1]: 4.71
- Spot# 766 Average Normalized Density × 100,000 [1]: 3.20
- Spot# 779, 909 Average Normalized Density × 100,000 [1]: 5.45
- Spot# 796 Average Normalized Density × 100,000 [1]: 9.97
- Spot# 814 Average Normalized Density × 100,000 [1]: 0.60
- Spot# 817 Average Normalized Density × 100,000 [1]: 12.14
- Spot# 820, 1081 Average Normalized Density × 100,000 [1]: 4.59
- Spot# 827 Average Normalized Density × 100,000 [1]: 17.91
- Spot# 832 Average Normalized Density × 100,000 [1]: 6.23
- Spot# 860 Average Normalized Density × 100,000 [1]: 3.06
- Spot# 867 Average Normalized Density × 100,000 [1]: 2.56
- Spot# 881 Average Normalized Density × 100,000 [1]: 13.92
- Spot# 897 Average Normalized Density × 100,000 [1]: 4.82
- Spot# 900 Average Normalized Density × 100,000 [1]: 25.94
- Spot# 906 Average Normalized Density × 100,000 [1]: 49.40
- Spot# 966 Average Normalized Density × 100,000 [1]: 53.33
